According to patent US7674787B2, “Conformationally constrained Smac mimetics and the uses thereof” (The Regents of the University of Michigan, priority 2004, dated 2010):
Where two headings read alike, the source gives them in different places. Where a SMILES comes first, the peptide text is derived from it. [ ]: non-standard residue; d: D form. The star is where a group is joined. 6FAM = O=C1OC2(c3ccc(O)cc3Oc3cc(O)ccc32)c2cc(C(=O)*)ccc21; Abu = CC[C@H](N)C(=O)O

Experiments:
PC-3 cells = assay: Apoptosis by Annexin V-FITC staining in PC-3 cells; assay type: cell-based, human; details: for cells undergoing apoptosis as compared to control cells: 42 hours; for potentiation of CDDP activity in inducing apoptosis: PC-3 cells or MDA-231 cells
Source text: SH-97, a peptido-mimetic in which the side chain of alanine has been replaced with an ethyl group and the isoleucine has been replaced with a diphenylmethyl group, was used to test the basic premise. Of note, SH-97 still has two natural amino acids (valine and proline) and one natural peptide bond. […] The experiment used PC-3 cells which express high levels of XIAP and cIAP-1/2 proteins and cisplatin (CDDP) as the chemotherapeutic drug. CDDP is a DNA damaging agent and can effectively induce apoptosis in PC-3 cells and is also a clinically used chemotherapeutic drug for prostate cancer.
PC-3 cells were treated with CDDP, Smac peptides and mimetics alone or in combination for 42 hours and apoptosis was analyzed by Annexin V-FITC staining. […] Combination of 25 μM CDDP and 10 μM or 25 μM SH-97 induced 29.3%±1.9% and 35.8%±0.4% apoptosis over control cells, respectively (FIG. 18A).
Similar experiments were performed with SH-102 (Table 5). PC-3 cells in 6-well plates were treated with SH-102 and CDDP, alone or in combination, for 42 hours. Cells were collected and stained with Annexin V-FITC and propidium iodide. The fluorescence of Annexin V-FITC and propidium iodide of individual cells was analyzed by flow cytometry. […] Combination of 25 μM CDDP and 10 μM SH-102 induced 32% apoptosis over control cells (FIG. 19).
The same experiment was performed using TAXOTERE (docetaxel), another cancer chemotherapeutic drug. PC-3 cells in 6-well plates were treated with SH-102 and TAXOTERE, alone or in combination, for 42 hours. Cells were collected and stained with Annexin V-FITC and propidium iodide. The fluorescence of Annexin V-FITC and propidium iodide of individual cells was analyzed by flow cytometry. […] Combination of 10 μM TAXOTERE and 10 μM SH-102 induced about 18% apoptosis over control cells (FIG. 21).

MDA-231 cells = assay: Apoptosis by Annexin V-FITC/propidium iodide in MDA-231 cells; assay type: cell-based, human; details: for cells undergoing apoptosis as compared to control cells: 42 hours
Procedure: Similar experiments were performed using the breast cancer cell line MDA-231. MDA-231 cells in 6-well plates were treated with SH-102 and CDDP, alone or in combination, for 42 hours. Cells were collected and stained with Annexin V-FITC and propidium iodide. The fluorescence of Annexin V-FITC and propidium iodide of individual cells was analyzed by flow cytometry. 25 μM and 50 μM CDDP induced about 25% and 42% of MDA-231 cells to undergo apoptosis as compared to control cells, respectively (FIG. 22). […] Combination of 25 and 50 μM CDDP and 10 μM SH-102 induced about 35% and 75% apoptosis over control cells, respectively (FIG. 22).

XIAP BIR3 = XIAP BIR3 (Homo sapiens, UniProt P98170); assay: biochemical
[1] = system: BT-549, MDA-MB-231 (subclone 2LMP), MDA-MB-231 (ATCC) and PC-3 cells; assay: Cell growth inhibition, WST-8, cancer cell lines; assay type: cell-based, human; details: 5 days, WST-8; each of the cancer cell lines
Procedure: To test the effect of [6.3.0] Smac mimetics in inhibition of cell growth in human cancer cells, compounds were administered to several different cancer cell lines. BT-549, MDA-MB-231 (subclone 2LMP), and MDA-MB-231 (ATCC) human breast cancer cells and PC-3 human prostate cancer cells were seeded in 96-well plates with increasing concentrations of the compounds. To assay for the selectivity of the compounds for cancer cells, normal prostate epithelial cells were also tested. The cells were then incubated at 37° C. with 5% CO2 for 5 days, followed by detection of cell viability with WST-8. Untreated cells were used as 100% growth. The compounds tested were SH-109, SH-122 and SH-123 (Table 6).

[2] = biological target: T1, human XIAP-BIR3 protein (residues 241-356) (Homo sapiens, UniProt P98170); assay: Fluorescence polarization saturation binding of labeled Smac peptides
T1 construct: The human XIAP-BIR3 protein (residues 241-356) with a His tag
Source text: A quantitative in vitro binding assay using fluorescence polarization was developed.

[3] = system: MDA-435, MDA-468, and T47D cells; assay: Cell growth inhibition, WST-8, breast cancer cell lines; assay type: cell-based, human; details: 5 days, all three cell lines
Procedure: To test the effect of Smac mimetics by themselves in inhibition of cell growth in human cancer cells, SH-102 was administered to three different breast cancer cell lines. MDA-435, MDA-468, and T47D cells were seeded in 96-well plates with increasing concentrations of SH-102, Smac8, or Smac8-C. The cells were then incubated at 37° C. with 5% CO2 for 5 days, followed by detection of cell viability with WST-8 (10% Dojindo solution in IMEM with 10% FCS). OD values at 450 nm with reference at 650 nm were read approximately 3 hours later. Untreated cells were used as 100% growth. […]. […] (FIGS. 26A-26C).

Chain of XIAP BIR3 (P98170 241-356): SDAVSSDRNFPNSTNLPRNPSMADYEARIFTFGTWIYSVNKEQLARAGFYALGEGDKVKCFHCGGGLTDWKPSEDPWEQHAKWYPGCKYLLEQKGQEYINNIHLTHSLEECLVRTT
T1 sequence (P98170 241-356): as above

| Compound | Ki (XIAP BIR3) [µM] | other results |
| --- | --- | --- |
| [NH2][Pt]([NH2])([Cl])[Cl] [CDDP, cisplatin, reference compound] |  | cells undergoing apoptosis as compared to control cells (PC-3 cells; 50 μM CDDP alone): ~25%; cells undergoing apoptosis as compared to control cells (MDA-231 cells; 25 μM CDDP alone): about 25%; cells undergoing apoptosis as compared to control cells (MDA-231 cells; 50 μM CDDP alone): ~42% |
| CC(C)C(NC(=O)[C@H](C)N)C(=O)C1CCC[C@H]1C(=O)NCc1ccccc1 (stereo partly drawn) [Compound 1] | 0.29 ± 0.06 |  |
| CC[C@H](N)C(=O)N[C@H]1CCC[C@H]2CC[C@@H](C(=O)NCc3ccccc3)N2C1=O [Compound 33] | 0.06 | Ki (XIAP BIR3; Ki): 0.06 µM; Ki (XIAP BIR3; Ki (μM), Table 4, [5.3.0] bicyclic lactam system): 0.06 ± 0.015 µM |
| C[C@H](N)C(=O)N[C@H]1CC[C@H]2CC[C@@H](C(=O)Nc3ccccc3)N2C1=O [SH-69] | > 200 |  |
| C[C@H](N)C(=O)N[C@H]1CC[C@H]2CC[C@@H](C(=O)N[C@@H](C)c3ccccc3)N2C1=O [SH-71] | > 200 |  |
| C[C@H](N)C(=O)N[C@H]1CC[C@H]2CC[C@@H](C(=O)N[C@H](C)c3ccccc3)N2C1=O [SH-72] | 8.88 |  |
| C[C@H](N)C(=O)N[C@H]1CC[C@H]2CC[C@@H](C(=O)NCc3ccccc3Br)N2C1=O [SH-73] | 26.3 |  |
| C[C@H](N)C(=O)N[C@H]1CC[C@H]2CC[C@@H](C(=O)NCc3cccc(Br)c3)N2C1=O [SH-74] | 9.62 |  |
| C[C@H](N)C(=O)N[C@H]1CC[C@H]2CC[C@@H](C(=O)NCc3ccc(Br)cc3)N2C1=O [SH-75] | 19.6 |  |
| Cc1cccc(CNC(=O)[C@@H]2CC[C@@H]3CC[C@H](NC(=O)[C@H](C)N)C(=O)N32)c1 [SH-77] | 44.4 |  |
| C[C@H](N)C(=O)N[C@H]1CC[C@H]2CC[C@@H](C(=O)NCc3cccc(Cl)c3)N2C1=O [SH-78] | 12.2 |  |
| C[C@H](N)C(=O)N[C@H]1CC[C@H]2CC[C@@H](C(=O)NCCc3c[nH]c4ccccc34)N2C1=O [SH-79] | > 200 |  |
| C[C@H](N)C(=O)N[C@H]1CC[C@H]2CC[C@@H](C(=O)NCc3ccoc3)N2C1=O [SH-84] | 9.98 |  |
| C[C@H](N)C(=O)N[C@H]1CC[C@H]2CC[C@@H](C(=O)NCc3ccsc3)N2C1=O [SH-85] | 6.28 |  |
| C[C@H](N)C(=O)N[C@H]1CC[C@H]2CC[C@@H](C(=O)N[C@H](Cc3ccccc3)C(N)=O)N2C1=O [SH-92] | 9.98 |  |
| CCC[C@H](N)C(=O)N[C@H]1CC[C@H]2CC[C@@H](C(=O)NCc3ccccc3)N2C1=O [SH-93] |  | potentiation of CDDP activity in inducing apoptosis (PC-3 cells): unable to potentiate the activity of CDDP; effect of combination with CDDP on apoptosis (MDA-231 cells; 25 and 50 μM CDDP + 25 μM SH-93, 42 hours): no significant effect; Ki (XIAP BIR3; Ki (μM), Table 5): > 100 µM |
| CC[C@H](N)C(=O)N[C@H]1CC[C@H]2CC[C@@H](C(=O)N[C@@H](Cc3ccccc3)c3ccccc3)N2C1=O [SH-100] | 8.51 |  |

| Compound | Ki (XIAP BIR3) [µM] | other results |
| --- | --- | --- |
| C[C@H](N)C(=O)N[C@H]1CCC[C@H]2CC[C@@H](C(=O)NC(c3ccccc3)c3ccccc3)N2C1=O [SH-104] | 0.059 |  |
| C[C@H](N)C(=O)N[C@H]1CCC[C@H]2CC[C@@H](COC(c3ccccc3)c3ccccc3)N2C1=O [SH-106] | 2.01 |  |
| CC[C@H](N)CC[C@H]1CCC[C@H]2CC[C@@H](C(=O)NC(c3ccccc3)c3ccccc3)N2C1=O [SH-107] | > 40 |  |
| CC[C@H](N)C(=O)N[C@H]1CCCC[C@H]2CC[C@@H](C(=O)NC(c3ccccc3)c3ccccc3)N2C1=O [SH-109] | 0.028 | cell growth inhibition (in words) [1]: inhibited the cell growth |
| CC[C@H](N)C(=O)N[C@H]1CCCC[C@H]2CC[C@@H](C(=O)N[C@H](c3ccccc3)c3ccccc3C)N2C1=O [SH-113] | 0.14 |  |
| CC[C@H](N)C(=O)N[C@H]1CCCC[C@H]2CC[C@@H](C(=O)N[C@H](c3ccccc3)c3cccc(C)c3)N2C1=O [SH-114] | 0.027 |  |
| CC[C@H](N)C(=O)N[C@H]1CCCC[C@H]2CC[C@@H](C(=O)N[C@H](c3ccccc3)c3ccc(C)cc3)N2C1=O [SH-115] | 0.092 |  |
| CC[C@H](N)C(=O)N[C@H]1CCCC[C@H]2CC[C@@H](C(=O)N[C@@H](c3ccccc3)c3ccccc3C)N2C1=O [SH-116] | 0.019 |  |
| CC[C@H](N)C(=O)N[C@H]1CCCC[C@H]2CC[C@@H](C(=O)N[C@@H](c3ccccc3)c3cccc(C)c3)N2C1=O [SH-117] | 0.012 |  |
| CC[C@H](N)C(=O)N[C@H]1CCCC[C@H]2CC[C@@H](C(=O)N[C@@H](c3ccccc3)c3ccc(C)cc3)N2C1=O [SH-118] | 0.016 |  |
| CC[C@H](N)C(=O)N[C@H]1CCCC[C@H]2CC[C@@H](C(=O)N[C@H](c3ccccc3)c3ccc4ccccc4c3)N2C1=O [SH-119] | 0.12 |  |
| CC[C@H](N)C(=O)N[C@H]1CCCC[C@H]2CC[C@@H](C(=O)N[C@@H](c3ccccc3)c3ccc4ccccc4c3)N2C1=O [SH-120] | 0.023 |  |
| C[C@H](O)C(=O)N[C@H]1CCCC[C@H]2CC[C@@H](C(=O)NC(c3ccccc3)c3ccccc3)N2C1=O [SH-123] | > 10 | cell growth inhibition (in words) [1]: inhibited the cell growth |
| CC[C@@H](C(=O)N[C@H]1CCCC[C@H]2CC[C@@H](C(=O)NC(c3ccccc3)c3ccccc3)N2C1=O)N(C)C [SH-125] | 0.03 |  |
| CC[C@H](N)C(=O)N[C@@H](CCCNC(=N)N)C(=O)N1CCC[C@H]1C(=O)N[C@@H](Cc1ccccc1)C(=O)N[C@@H](CCCCNC(=O)c1ccc2c(c1)C1(OC2=O)c2ccc(O)cc2Oc2cc(O)ccc21)C(=O)O [SM5F, AbuRPFK-FAM] (H-[Abu]RPFK(6FAM)-OH; N-terminus and C-terminus assumed) |  | ratio of the Kd values between labeled SM5F and S9F ([2]; SM5F versus S9F): 7.2 fold; binding affinity higher than natural Smac peptide S9F ([2]; relative to S9F): about 10 times |
| CC(=O)O[C@@]12CO[C@@H]1C[C@H](O)[C@@]1(C)C(=O)[C@H](O)C3=C(C)[C@@H](OC(=O)[C@H](O)[C@@H](NC(=O)OC(C)(C)C)c4ccccc4)C[C@@](O)([C@@H](OC(=O)c4ccccc4)[C@H]21)C3(C)C [TAXOTERE, docetaxel, reference compound] |  | cells undergoing apoptosis as compared to control cells (PC-3 cells; 10 μM TAXOTERE alone): about 5%; cells undergoing apoptosis as compared to control cells (PC-3 cells; 20 μM TAXOTERE alone): ~8% |
| AVPIAQKS [Smac-8, Smac peptide without a carrier peptide, negative control, reference compound] |  | potentiation of CDDP activity in inducing apoptosis (PC-3 cells): unable to potentiate the activity of CDDP; cell growth inhibition (in words) [3]: essentially ineffective |
